Test results taken from patent publication US20230398130A1, “METHODS AND COMPOSITIONS FOR DIFFERENTIATING STEM CELLS” (Massachusetts Institute of Technology, priority 2020, published 2023).

Assays:
ISC-enriched organoids [1] = assay: Primary screen, 384-well 2.5-D organoid differentiation (ENR+CD, 6 days): basal lysozyme secretion (LYZ.NS); format: cell-based, murine; settings: primary screen; for Dose.FC.LYZ.NS: FC vs plate median; for Z.LYZ.NS: standard z score; for SSMD.LYZ.NS: strictly standardized mean difference
Source text: (§1) High-throughput screening.

ISC-enriched organoids [2] = assay: Primary screen, 384-well 2.5-D organoid differentiation (ENR+CD, 6 days): carbachol-induced lysozyme secretion (LYZ.S); format: cell-based, murine; settings: primary screen; for Dose.FC.LYZ.S: FC vs plate median; for Z.LYZ.S: standard z score; for SSMD.LYZ.S: strictly standardized mean difference
Source text: as §1

ISC-enriched organoids [3] = assay: Primary screen, 384-well 2.5-D organoid differentiation (ENR+CD, 6 days, Target Selective Inhibitor Library, vs whole-plate median): ATP (CellTiter-Glo 3D, CTG); settings: primary screen; for Dose.FC.CTG: FC vs plate median; for Z.CTG: standard z score; for SSMD.CTG: strictly standardized mean difference
[4] = 1st of the 4 dose lines of the treatment (dose not given)
[5] = 2nd of the 4 dose lines of the treatment (dose not given)
[6] = 3rd of the 4 dose lines of the treatment (dose not given)
[7] = 4th of the 4 dose lines of the treatment (dose not given)

| Compound | SSMD.LYZ.NS (ISC-enriched organoids [1]; [4]) | SSMD.LYZ.NS (ISC-enriched organoids [1]; [5]) | SSMD.LYZ.NS (ISC-enriched organoids [1]; [6]) | SSMD.LYZ.NS (ISC-enriched organoids [1]; [7]) | Z.LYZ.S (ISC-enriched organoids [2]; [4]) | Z.LYZ.S (ISC-enriched organoids [2]; [5]) | Z.LYZ.S (ISC-enriched organoids [2]; [6]) | Z.LYZ.S (ISC-enriched organoids [2]; [7]) | SSMD.LYZ.S (ISC-enriched organoids [2]; [4]) | SSMD.LYZ.S (ISC-enriched organoids [2]; [5]) | SSMD.LYZ.S (ISC-enriched organoids [2]; [6]) | SSMD.LYZ.S (ISC-enriched organoids [2]; [7]) | Z.CTG (ISC-enriched organoids [3]; Dose 0.08 uM) | Z.CTG (ISC-enriched organoids [3]; Dose 0.40 uM) | Z.CTG (ISC-enriched organoids [3]; Dose 2.00 uM) | Z.CTG (ISC-enriched organoids [3]; Dose 10.00 uM) | SSMD.CTG (ISC-enriched organoids [3]; [4]) | SSMD.CTG (ISC-enriched organoids [3]; [5]) | SSMD.CTG (ISC-enriched organoids [3]; [6]) | SSMD.CTG (ISC-enriched organoids [3]; [7]) | also measured |
| --- | --- | --- | --- | --- | --- | --- | --- | --- | --- | --- | --- | --- | --- | --- | --- | --- | --- | --- | --- | --- | --- |
| Cc1noc(-c2ccc(CSCCC(=O)O)cc2)c1NC(=O)OC(C)c1ccccc1Cl (centres unmarked) [Ki16425] | 0.006 | 0.483 | −0.072 | −0.246 | 0.142 | 0.739 | −0.135 | −0.459 | 0.130 | 0.421 | −0.133 | −0.394 | −0.121 | −0.005 | −0.185 | −0.394 | −0.145 | −0.008 | −0.226 | −0.527 | Dose.FC.LYZ.NS (ISC-enriched organoids [1]; Dose 0.08 uM): 0.001 log 2 fold change; Z.LYZ.NS (ISC-enriched organoids [1]; Dose 0.08 uM): 0.005; Dose.FC.LYZ.NS (ISC-enriched organoids [1]; Dose 0.40 uM): 0.117 log 2 fold change; Z.LYZ.NS (ISC-enriched organoids [1]; Dose 0.40 uM): 1.017; Dose.FC.LYZ.NS (ISC-enriched organoids [1]; Dose 2.00 uM): −0.008 log 2 fold change; Z.LYZ.NS (ISC-enriched organoids [1]; Dose 2.00 uM): −0.069; Dose.FC.LYZ.NS (ISC-enriched organoids [1]; Dose 10.00 uM): −0.038 log 2 fold change; Z.LYZ.NS (ISC-enriched organoids [1]; Dose 10.00 uM): −0.327; Dose.FC.LYZ.S (ISC-enriched organoids [2]; Dose 0.08 uM): 0.022 log 2 fold change; Dose.FC.LYZ.S (ISC-enriched organoids [2]; Dose 0.40 uM): 0.114 log 2 fold change; Dose.FC.LYZ.S (ISC-enriched organoids [2]; Dose 2.00 uM): −0.021 log 2 fold change; Dose.FC.LYZ.S (ISC-enriched organoids [2]; Dose 10.00 uM): −0.071 log 2 fold change; Dose.FC.CTG (ISC-enriched organoids [3]; Dose 0.08 uM): −0.051 log 2 fold change; Dose.FC.CTG (ISC-enriched organoids [3]; Dose 0.40 uM): −0.002 log 2 fold change; Dose.FC.CTG (ISC-enriched organoids [3]; Dose 2.00 uM): −0.078 log 2 fold change; Dose.FC.CTG (ISC-enriched organoids [3]; Dose 10.00 uM): −0.165 log 2 fold change |
| O=C(c1cn(Cc2cncn2Cc2ccc(Br)cc2)cc1-c1cccc2ccccc12)N1CCOCC1 [LB42708] | −1.118 | −1.157 | −1.034 | −0.939 | −0.576 | −0.934 | −1.539 | −1.509 | −0.519 | −0.630 | −0.965 | −0.864 | −0.172 | −0.817 | −0.277 | −1.685 | −0.254 | −0.531 | −0.186 | −1.059 | Dose.FC.LYZ.NS (ISC-enriched organoids [1]; Dose 0.08 uM): −0.116 log 2 fold change; Z.LYZ.NS (ISC-enriched organoids [1]; Dose 0.08 uM): −1.010; Dose.FC.LYZ.NS (ISC-enriched organoids [1]; Dose 0.40 uM): −0.140 log 2 fold change; Z.LYZ.NS (ISC-enriched organoids [1]; Dose 0.40 uM): −1.221; Dose.FC.LYZ.NS (ISC-enriched organoids [1]; Dose 2.00 uM): −0.176 log 2 fold change; Z.LYZ.NS (ISC-enriched organoids [1]; Dose 2.00 uM): −1.531; Dose.FC.LYZ.NS (ISC-enriched organoids [1]; Dose 10.00 uM): −0.182 log 2 fold change; Z.LYZ.NS (ISC-enriched organoids [1]; Dose 10.00 uM): −1.587; Dose.FC.LYZ.S (ISC-enriched organoids [2]; Dose 0.08 uM): −0.089 log 2 fold change; Dose.FC.LYZ.S (ISC-enriched organoids [2]; Dose 0.40 uM): −0.144 log 2 fold change; Dose.FC.LYZ.S (ISC-enriched organoids [2]; Dose 2.00 uM): −0.238 log 2 fold change; Dose.FC.LYZ.S (ISC-enriched organoids [2]; Dose 10.00 uM): −0.233 log 2 fold change; Dose.FC.CTG (ISC-enriched organoids [3]; Dose 0.08 uM): −0.072 log 2 fold change; Dose.FC.CTG (ISC-enriched organoids [3]; Dose 0.40 uM): −0.342 log 2 fold change; Dose.FC.CTG (ISC-enriched organoids [3]; Dose 2.00 uM): −0.116 log 2 fold change; Dose.FC.CTG (ISC-enriched organoids [3]; Dose 10.00 uM): −0.706 log 2 fold change |
| Cc1c(C(=O)Nc2ccc(N3C[C@@H](C)O[C@@H](C)C3)nc2)cccc1-c1ccc(OC(F)(F)F)cc1 [LDE225 (NVP-LDE225, Erismodegib)] | 0.869 | 0.731 | 0.074 | 0.268 | 0.613 | 0.481 | 0.013 | 0.038 | 0.704 | 0.415 | 0.013 | 0.025 | 0.255 | 0.159 | 0.546 | −0.002 | 0.313 | 0.163 | 0.681 | −0.001 | Dose.FC.LYZ.NS (ISC-enriched organoids [1]; Dose 0.08 uM): 0.085 log 2 fold change; Z.LYZ.NS (ISC-enriched organoids [1]; Dose 0.08 uM): 0.739; Dose.FC.LYZ.NS (ISC-enriched organoids [1]; Dose 0.40 uM): 0.101 log 2 fold change; Z.LYZ.NS (ISC-enriched organoids [1]; Dose 0.40 uM): 0.881; Dose.FC.LYZ.NS (ISC-enriched organoids [1]; Dose 2.00 uM): 0.011 log 2 fold change; Z.LYZ.NS (ISC-enriched organoids [1]; Dose 2.00 uM): 0.094; Dose.FC.LYZ.NS (ISC-enriched organoids [1]; Dose 10.00 uM): 0.049 log 2 fold change; Z.LYZ.NS (ISC-enriched organoids [1]; Dose 10.00 uM): 0.426; Dose.FC.LYZ.S (ISC-enriched organoids [2]; Dose 0.08 uM): 0.095 log 2 fold change; Dose.FC.LYZ.S (ISC-enriched organoids [2]; Dose 0.40 uM): 0.074 log 2 fold change; Dose.FC.LYZ.S (ISC-enriched organoids [2]; Dose 2.00 uM): 0.002 log 2 fold change; Dose.FC.LYZ.S (ISC-enriched organoids [2]; Dose 10.00 uM): 0.006 log 2 fold change; Dose.FC.CTG (ISC-enriched organoids [3]; Dose 0.08 uM): 0.107 log 2 fold change; Dose.FC.CTG (ISC-enriched organoids [3]; Dose 0.40 uM): 0.067 log 2 fold change; Dose.FC.CTG (ISC-enriched organoids [3]; Dose 2.00 uM): 0.229 log 2 fold change; Dose.FC.CTG (ISC-enriched organoids [3]; Dose 10.00 uM): −0.001 log 2 fold change |
| Cc1cc(Nc2ncc(Cl)c(Nc3ccccc3S(=O)(=O)C(C)C)n2)c(OC(C)C)cc1C1CCNCC1 [LDK378] | 0.246 | −0.527 | −1.818 | −2.550 | 0.763 | −0.306 | −1.817 | −3.149 | 0.574 | −0.290 | −1.400 | −2.075 | 0.322 | 0.010 | −0.869 | −3.087 | 0.320 | 0.013 | −0.596 | −1.329 | – |
